Experimental data taken from EPA's ToxValDB 9.5.
Several values for one entry are separate records, joined by “and”; a condition that tells them apart may be missing. Identical values can stand only once.

What was measured:
Rattus norvegicus [1] = settings: for LD50 / LC50: acute
Rattus norvegicus [2] = settings: subchronic, oral, gavage, M, Sprague-Dawley
Rattus norvegicus [3] = settings: for LEL: uterotrophic, Active; for LOEL / NOEL: Hershberger, duration: 10 days, gavage, Sprague-Dawley
Rattus norvegicus [4] = settings: short-term
Rattus norvegicus [5] = test system: Rattus norvegicus
[6] = reproduction developmental, duration: 90 days, oral, diet, F
[7] = reproduction developmental, duration: 90 days, oral, diet, F, Fischer 344
[8] = reproduction developmental, duration: 90 days, oral, diet, Fischer 344, generation: F1
[9] = reproduction developmental, duration: 90 days, oral, diet, generation: F1
[10] = reproduction developmental, oral, gavage, F, Sprague-Dawley
[11] = duration: 3 days, injection, subcutaneous
[12] = oral, active + Negative + Antiandrogenic + anti-androgenic + negative
[13] = duration: 28 days, oral, gavage, F, Crl:CD(SD), Kidney: Kidney, Right, Pelvis, Dilation + Liver: Liver Weight, Relative + Liver: Liver, Large
[14] = duration: 28 days, oral, gavage, F, Crl:CD(SD), Whole Body: Clinical Observations
[15] = duration: 28 days, oral, gavage, M, Crl:CD(SD), Liver: Hepatocellular Hypertrophy + Liver: Liver Weight, Relative + Liver: Liver, Large
[16] = oral, active + Antiandrogenic + anti-androgenic
[17] = repeat dose other, inhalation, B6C3F1
[18] = duration: 3 days, injection, subcutaneous, F, Crj:CD, uterus: uterine dry weight (absolute) + uterus: uterine dry weight (relative) + uterus: uterine wet weight (absolute) + uterus: uterine wet …
[19] = duration: 28 days, oral, gavage, F, Crl:CD(SD), A/G ratio + phospholipid + triglyceride
[20] = duration: 28 days, oral, gavage, F, Crl:CD(SD), cholinesterase + inorganic phosphorus + kidney: abnormal kidney histopathological changes
[21] = duration: 28 days, oral, gavage, F, Crl:CD(SD), uterus: uterine dry weight (absolute) + uterus: uterine dry weight (relative) + uterus: uterine wet weight (absolute) + uterus: uterine wet …
[22] = duration: 28 days, oral, gavage, M, Crl:CD(SD), alanine aminotransferase + body weight + brain: brain weight + gamma-glutamyl transpeptidase + heart: heart weight + hematocrit + kidney: …
[23] = duration: 28 days, oral, gavage, M, Crl:CD(SD), heart: heart weight

SMILES: Nc1ccc(Oc2ccc(N)cc2)cc1 [4,4'-Oxydianiline]
- LD50 (Rattus norvegicus [1]; oral, gavage): ≥ 675 mg/kg and ≤ 775 mg/kg
- NOAEL (Rattus norvegicus [1]; developmental, oral, gavage, Sprague-Dawley): 10 mg/kg-day
- LOAEL (Rattus norvegicus [1]; [6]): 400 ppm
- NOAEL (Rattus norvegicus [1]; [6]): 100 ppm
- LOAEL (Rattus norvegicus [1]; [7]): 400 ppm
- NOAEL (Rattus norvegicus [1]; [7]): 100 ppm
- LOAEL (Rattus norvegicus [1]; [8]): 400 ppm
- NOAEL (Rattus norvegicus [1]; [8]): 100 ppm
- LOAEL (Rattus norvegicus [1]; [9]): 400 ppm
- NOAEL (Rattus norvegicus [1]; [9]): 100 ppm
- NOAEL (Rattus norvegicus [1]; [10]): 10 mg/kg-day
- LD50 (Mus musculus; acute, oral, gavage): ≥ 635 mg/kg and ≤ 735 mg/kg
- NOEL (Rattus norvegicus [2]; Food Consumption: decrease + Hematology: RBC decrease, R Hgb decrease, R RET increase, R Hct decrease, MCHC decrease, R APTT decrease, WBC …): 3 mg/kg-day

SMILES: C[C@]12CCC(=O)C=C1CC[C@@H]1[C@@H]2CC[C@]2(C)C(=O)CC[C@@H]12 [4-Androstene-3,17-dione]
- LEL (Rattus norvegicus [3]; [11]): 5 mg/day
- LEL (Rattus norvegicus [3]; duration: 7 days, injection, subcutaneous): 5 mg/kg-day
- LEL (Rattus norvegicus [3]; duration: 14 days, injection, subcutaneous): 2 mg/day
- LEL (Rattus norvegicus [3]; duration: 36 days, injection, subcutaneous): 1 mg/kg-day

SMILES: N#Cc1c(Cl)cccc1Cl [2,6-Dichlorobenzonitrile]
- LOEL (Rattus norvegicus [3]; [12]): 150 mg/kg-day
- NOEL (Rattus norvegicus [3]; [12]): 60 mg/kg-day

SMILES: CCC(F)(F)C(F)(F)C(F)(F)C(F)(F)C(F)(F)C(F)(F)F [1-(Perfluorohexyl)ethane]
- NOAEL (Rattus norvegicus [4]; duration: 28 days, oral, gavage, F, Crl:CD(SD), Adrenal: Adrenal Gland Histopathology + Adrenal: Adrenal Gland Weight, Absolute + Adrenal: Adrenal Gland Weight, Relative + Bladder: Urinary…): 200 mg/kg-day
- LOAEL (Rattus norvegicus [4]; [13]): 200 mg/kg-day
- NOAEL (Rattus norvegicus [4]; [13]): 40 mg/kg-day
- LOAEL (Rattus norvegicus [4]; [14]): 40 mg/kg-day
- NOAEL (Rattus norvegicus [4]; [14]): 8 mg/kg-day
- NOAEL (Rattus norvegicus [4]; duration: 28 days, oral, gavage, M, Crl:CD(SD), Adrenal: Adrenal Gland Histopathology + Adrenal: Adrenal Gland Weight, Absolute + Adrenal: Adrenal Gland Weight, Relative + Blood: Activated…): 200 mg/kg-day
- LOAEL (Rattus norvegicus [4]; [15]): 200 mg/kg-day
- NOAEL (Rattus norvegicus [4]; [15]): 40 mg/kg-day

SMILES: CCCCC(CC)COC(=O)c1ccccc1C(=O)O (centres undefined) [MEHP]
- LOEL (Rattus norvegicus [3]; [16]): 50 mg/kg-day
- NOEL (Rattus norvegicus [3]; [16]): 10 mg/kg-day

SMILES: CCCCCCCCCCCCc1ccc(O)cc1 [4-Dodecylphenol]
- LEL (Rattus norvegicus [3]; [11]): 40 mg/kg-day and 39.7 mg/kg-day

SMILES: C#C[C@@]1(OC(=O)CC)C[C@@H]2CC[C@@H]3[C@H](CC[C@@]4(C)[C@H]3CC[C@]4(C#C)OC(=O)CC)[C@@]2(C)C1 [Anordrin]
- LEL (Rattus norvegicus [3]; duration: 3 days, oral): 0.0025 mg/day

SMILES: [Sn] [Tin]
- NOAEL (Rattus norvegicus [5]; subchronic, duration: 13 weeks, oral, diet, M/F, Wistar, hematological): 32 mg/kg-day

SMILES: C=CC(=C)C [Isoprene]
- LC50 (Rattus norvegicus [1]; inhalation): 180000 mg/m3 and 157000 mg/m3
- NOAEL (Rattus norvegicus [1]; developmental, duration: 6 days, inhalation, Sprague-Dawley, generation: F1): 19500 mg/m3
- NOAEL (Rattus norvegicus [1]; reproduction developmental, inhalation, Fischer 344): 195 mg/m3
- LC50 (Mus musculus; acute, inhalation): 180000 mg/m3 and 157000 mg/m3
- NOAEL (Mus musculus; developmental, duration: 6 days, inhalation, CD-1/Swiss, generation: F1): 19500 mg/m3
- LOAEL (Mus musculus; [17]): 195 mg/m3
- NOAEL (Mus musculus; [17]): 27.9 mg/m3
- NOAEL (Mus musculus; reproduction developmental, inhalation, B6C3F1): 195 mg/m3

SMILES: Oc1ccc(C2(c3ccc(O)cc3)CCCCC2)cc1 [Bisphenol Z]
- NOEL (Rattus norvegicus [2]; Clinical Observation: Diarrhea Soft feces + Body Weight Changes: decrease, R + Food Consumption: decrease + Urinalysis: Urine volume …): 20 mg/kg-day
- LOEL (Rattus norvegicus [4]; [18]): 30 mg/kg-day
- NOEL (Rattus norvegicus [4]; [18]): 6 mg/kg-day
- LOEL (Rattus norvegicus [4]; [19]): 100 mg/kg-day
- NOEL (Rattus norvegicus [4]; [19]): 30 mg/kg-day
- LOEL (Rattus norvegicus [4]; [20]): 300 mg/kg-day
- NOEL (Rattus norvegicus [4]; [20]): 100 mg/kg-day
- LOEL (Rattus norvegicus [4]; [21]): 30 mg/kg-day
- NOEL (Rattus norvegicus [4]; [21]): 6 mg/kg-day
- LOEL (Rattus norvegicus [4]; [22]): 300 mg/kg-day
- NOEL (Rattus norvegicus [4]; [22]): 100 mg/kg-day
- LOEL (Rattus norvegicus [4]; [23]): 100 mg/kg-day
- NOEL (Rattus norvegicus [4]; [23]): 30 mg/kg-day
- LOEL (Rattus norvegicus [4]; duration: 28 days, oral, gavage, M, Crl:CD(SD), thymus: serum T4): 30 mg/kg-day

SMILES: NS(=O)(=O)C(F)(F)C(F)(F)C(F)(F)C(F)(F)C(F)(F)C(F)(F)C(F)(F)C(F)(F)F [Perfluorooctanesulfonamide]
- NOAEL (Rattus norvegicus [5]; acute, duration: 1 days, oral, gavage, M, Sprague-Dawley, Hepatic: No alterations in liver weight): 5 mg/kg-day

SMILES: CCN(O)CC [N,N-Diethylhydroxylamine]
- LC50 (Rattus norvegicus [1]; inhalation, Sprague-Dawley): 11400 mg/m3
- LD50 (Rattus norvegicus [1]; oral, gavage, WBS/W): 2190 mg/kg
- NOAEL (Rattus norvegicus [1]; [10]): 250 mg/kg-day
- NOAEL (Rattus norvegicus [1]; short-term, duration: 5 days, inhalation, Sprague-Dawley): 547 mg/m3
- NOAEL (Rattus norvegicus [1]; short-term, duration: 28 days, inhalation, Sprague-Dawley): 547 mg/m3
- LD50 (Mus musculus; acute, oral): 2150 mg/kg

SMILES: [Cl-].[Cl-].[Co+2] [Cobalt chloride]
- LOAEL (Rattus norvegicus [1]; chronic, duration: 150 days, oral, gavage): 4 mg/kg-day
- NOAEL (Mus musculus; developmental, duration: 5 days, oral, gavage, ICR): 180 mg/kg-day

SMILES: C1CO1 [Ethylene oxide]
- NOAEL (Rattus norvegicus [5]; developmental, duration: 364 days, inhalation, whole body, M/F, CD, developmental): 18 mg/m3
